Experimental findings from patent US20230059705A1, “NITRIFICATION INHIBITOR FUNGICIDE COMPOSITION AND USE THEREOF” (Verdesian Life Sciences U.S., LLC, priority 2019, published 2023) are described below.

The test system of one test is Nitrosomonas europaea. Description: Inhibition of nitrite generation by N. europaea cell suspension (Griess reagent, absorbance 548 nm). It is filed as cell-based. To be noted: thiram 4 μM, relative to zero inhibitor control, read-out: % control (percent control of nitrification inhibition), observed. The method, then: 1.5 L of cell culture suspension containing Nitrosomonas europaea (N. europaea) bacteria (ATCC #19718) was resuspended into a phosphate buffer (0.1M NaPB, 2 mM Mg SO4, pH of 7.5). The amount of N. europaea protein was quantified using a Biuret assay. A sample of the cell culture suspension containing about 0.3 mg/mL, 0.25 mg/mL, or 0.5 mg/mL of N. europaea protein was incubated with 50 μL of (NH4)2SO4 in a total reaction volume of 5 mL. The test measured inhibition for treatment rates of 4 μM thiram, 100 μM nitrapyrin, 100 μM of formulation 2 (form.2), formulation 3 (form.3), formulation 4 (form.4) and 100 μM of formulation 2 (form.2) plus 4 μM thiram, 100 μM of formulation 3 (form.3) plus 4 μM thiram and 100 μM of formulation 4 (form.4) plus 4 μM thiram; an untreated N. europaea assay served as the control. At time points 0, 30, and 60 minutes post addition of (NH4)2SO4, an aliquot of 500 μL was removed from the reaction mixture and was incubated for 30 minutes with 500 μL of Griess Reagent in the dark followed by measuring the absorbance at 548 nm for the presence or absence of nitrite. The percent of nitrification inhibition was calculated based on the relative percentage of nitrite measurement against the zero inhibitor control measurement (see FIGS. 2-4 showing the percent control of nitrification inhibition). […]
A general note: Nitrite, measured by Griess reagent, commonly stands in for NO production.

The next test deals with N. europaea. Kind of test: Oxygen (O2) uptake of N. europaea cell suspension. It is filed as cell-based, Nitrosomonas europaea. The following applies: FIG. 12, cells at 0.5 mg/mL total protein, thiram 4 μM, nitrapyrin and formulations 100 μM. Here is the method:
1.5 L of cell culture suspension containing N. europaea bacteria (ATCC #19718) was resuspended into a phosphate buffer (0.1M NaPB, 2 mM Mg SO4, pH of 7.5). The amount of N. europaea protein was quantified using a Biuret assay.
To a buffer solution containing 10 μM of (NH4)2SO4 in a total reaction volume of 5 mL was added 0.25 mg/mL of the N. europaea containing cell suspension. The N. europaea protein content varied (e.g., 0.25 mg/mL, 0.3 mg/mL or 0.5 mg/mL total protein). Measurements of O2 present in the reaction medium were taken immediately after the addition of the cell suspension to the buffer solution for and were taken continuously over a certain time period.
Test compounds and formulations included 4 μM thiram, 100 μM nitrapyrin, 100 μM of formulation 2, 100 μM of formulation 3, 100 μM of formulation 4, 100 μM of formulation 2 plus 4 μM thiram, 100 μM of formulation 3 plus 4 μM thiram; and 100 μM of formulation 4 plus 4 μM, and thiram, untreated N. europaea assay served as the control.
Results are typically plotted as a function of measured oxygen (i.e., the amount of dissolved oxygen) in solution over time to generate a inhibition curve (FIG. 11). Measurements of the area under the inhibition curve can provide a bar chart showing the oxygen consumption of N. europaea of the entire testing period.

Read-outs that look alike come from different tables or passages of the source.

By inhibition is commonly meant the share of the control response that was lost under treatment. On to `CN(C)C(=S)SSC(=S)N(C)C` [Thiram], for which the inhibition at 4 µM with Nitrosomonas europaea (0.5 h, 30 min after (NH4)2SO4, formulation 100 μM) is 77.7 ± 1%; in the test on Nitrosomonas europaea (1 h, 60 min after (NH4)2SO4, formulation 100 μM) it was 77.3 ± 1.2%; in the test with N. europaea (Nitrosomonas europaea, read-out: inhibition of oxygen consumption by N. europaea) it was 20%.

Take `Clc1cccc(C(Cl)(Cl)Cl)n1` [nitrapyrin, 2-chloro-6-(trichloromethyl)-pyridine]: the “inhibition of oxygen consumption by N. europaea” value with N. europaea is reported as “did not inhibit”.
